Values of other authors, collected in US6803034B2, “Compositions and methods for odor and fungal control in ballistic fabric and other protective garments” (Procter & Gamble Company, priority 2000, dated 2004).

| Structure (SMILES) | solubility in water |
| --- | --- |
| [H]/N=C(\N/C(=N/[H])NCCCCCCNC(=N)NC(=N)Nc1ccc(Cl)cc1)Nc1ccc(Cl)cc1 [chlorhexidine digluconate, 1,1′-hexamethylene bis(5-(p-chlorophenyl)biguanide)] | about 70% |
| [H]/N=C(\N/C(=N/[H])NCCCCCCNC(=N)NC(=N)Nc1ccc(Cl)cc1)Nc1ccc(Cl)cc1 [chlorhexidine diacetate, 1,1′-hexamethylene bis(5-(p-chlorophenyl)biguanide)] | about 1.8% |
